Assay results as given in ChEMBL document CHEMBL4002566, “S-substituted 3,5-dinitrophenyl 1,3,4-oxadiazole-2-thiols and tetrazole-5-thiols as highly efficient antitubercular agents” (Eur J Med Chem, 2017).
In brackets after ≈: the same amount, converted by molar mass.

Key:
Klebsiella pneumoniae [1] = assay: Antibacterial activity against Klebsiella pneumoniae HK11750/08 after 24 hrs by broth microdilution method; type: functional; conditions: HK11750/08, 24 h
Pichia kudriavzevii [2] = assay: Antifungal activity against Candida krusei E28 after 24 hrs by broth microdilution method; type: functional; conditions: E28, 24 h
Lichtheimia corymbifera [3] = assay: Antifungal activity against Absidia corymbifera 272 after 48 hrs by broth microdilution method; type: functional; conditions: Lichtheimia corymbifera, 272, 48 h
[4] = system: Trichophyton mentagrophytes; assay: Antifungal activity against Trichophyton mentagrophytes 445 after 72 hrs by broth microdilution method; type: functional; conditions: Trichophyton mentagrophytes, 445, 72 h
Lichtheimia corymbifera [5] = assay: Antifungal activity against Absidia corymbifera 272 after 24 hrs by broth microdilution method; type: functional; conditions: Lichtheimia corymbifera, 272, 24 h
A-431 = assay: Cytotoxicity against human A431 cells assessed as cell viability after 48 hrs by MTS assay; type: cell-based; conditions: A-431, 48 h
[6] = Cytotoxicity against human HuH7 cells assessed as cell viability at 30 uM after 48 hrs by MTS assay relative to control; type: cell-based, Huh-7; conditions: read-out: Activity
[7] = system: Trichophyton mentagrophytes; assay: Antifungal activity against Trichophyton mentagrophytes 445 after 120 hrs by broth microdilution method; type: functional; conditions: Trichophyton mentagrophytes, 445, 120 h
Enterococcus sp. [8] = assay: Antibacterial activity against Enterococcus sp. HK14365/08 after 48 hrs by broth microdilution method; type: functional; conditions: HK14365/08, 48 h
Staphylococcus aureus [9] = assay: Antibacterial activity against methicillin-resistant Staphylococcus aureus HK5996/08 after 24 hrs by broth microdilution method; type: functional; conditions: HK5996/08, 24 h
Escherichia coli [10] = assay: Antibacterial activity against Escherichia coli ATCC 8739 after 24 hrs by broth microdilution method; type: functional; conditions: ATCC 8739, 24 h
Escherichia coli [11] = assay: Antibacterial activity against Escherichia coli ATCC 8739 after 48 hrs by broth microdilution method; type: functional; conditions: ATCC 8739, 48 h
Mycobacterium kansasii [12] = assay: Antimycobacterial activity against Mycobacterium kansasii 6509/96 clinical isolate after 21 days by micromethod; type: functional; conditions: 6509/96, 504 h
Enterococcus sp. [13] = assay: Antibacterial activity against Enterococcus sp. HK14365/08 after 24 hrs by broth microdilution method; type: functional; conditions: HK14365/08, 24 h
Trichosporon asahii [14] = assay: Antifungal activity against Trichosporon asahii 1188 after 24 hrs by broth microdilution method; type: functional; conditions: Trichosporon asahii, 1188, 24 h
Candida albicans [15] = assay: Antifungal activity against Candida albicans ATCC 44859 after 24 hrs by broth microdilution method; type: functional; conditions: ATCC 44859, 24 h
Mycobacterium kansasii [16] = assay: Antimycobacterial activity against Mycobacterium kansasii CNCTC My 235/80 after 7 days by micromethod; type: functional; conditions: CNCTC My 235/80, 168 h
Klebsiella pneumoniae [17] = assay: Antibacterial activity against extended spectrum beta-lactamase producing Klebsiella pneumoniae HK14368/08 after 48 hrs by broth microdilution method; type: functional; conditions: HK14368/08, 48 h
Candida tropicalis [18] = assay: Antifungal activity against Candida tropicalis 156 after 24 hrs by broth microdilution method; type: functional; conditions: Candida tropicalis, 156, 24 h
Mycobacterium kansasii [19] = assay: Antimycobacterial activity against Mycobacterium kansasii 6509/96 clinical isolate after 7 days by micromethod; type: functional; conditions: 6509/96, 168 h
HepG2 = assay: Cytotoxicity against human HepG2 cells assessed as cell viability after 48 hrs by MTS assay; type: cell-based; conditions: HepG2, 48 h
[20] = Cytotoxicity against MDCK cells assessed as cell viability at 30 uM after 48 hrs by MTS assay relative to control; type: cell-based, Canis lupus familiaris; conditions: dog, read-out: Activity
Nakaseomyces glabratus [21] = assay: Antifungal activity against Candida glabrata 20/I after 48 hrs by broth microdilution method; type: functional
Trichosporon asahii [22] = assay: Antifungal activity against Trichosporon asahii 1188 after 48 hrs by broth microdilution method; type: functional; conditions: Trichosporon asahii, 1188, 48 h
Klebsiella pneumoniae [23] = assay: Antibacterial activity against extended spectrum beta-lactamase producing Klebsiella pneumoniae HK14368/08 after 24 hrs by broth microdilution method; type: functional; conditions: HK14368/08, 24 h
Candida albicans [24] = assay: Antifungal activity against Candida albicans ATCC 44859 after 48 hrs by broth microdilution method; type: functional; conditions: ATCC 44859, 48 h
Mycobacterium kansasii [25] = assay: Antimycobacterial activity against Mycobacterium kansasii CNCTC My 235/80 after 21 days by micromethod; type: functional; conditions: CNCTC My 235/80, 504 h
Pseudomonas aeruginosa [26] = assay: Antibacterial activity against Pseudomonas aeruginosa ATCC 9027 after 24 hrs by broth microdilution method; type: functional; conditions: ATCC 9027, 24 h
Staphylococcus aureus [27] = assay: Antibacterial activity against methicillin-resistant Staphylococcus aureus HK5996/08 after 48 hrs by broth microdilution method; type: functional; conditions: HK5996/08, 48 h
MDCK = assay: Cytotoxicity against MDCK cells assessed as cell viability after 48 hrs by MTS assay; type: cell-based; conditions: Canis lupus familiaris
Aspergillus fumigatus [28] = assay: Antifungal activity against Aspergillus fumigatus 231 after 48 hrs by broth microdilution method; type: functional; conditions: Aspergillus fumigatus, 231, 48 h
Mycobacterium kansasii [29] = assay: Antimycobacterial activity against Mycobacterium kansasii CNCTC My 235/80 after 14 days by micromethod; type: functional; conditions: CNCTC My 235/80, 336 h
Nakaseomyces glabratus [30] = assay: Antifungal activity against Candida glabrata 20/I after 24 hrs by broth microdilution method; type: functional
Huh-7 = assay: Cytotoxicity against human HuH7 cells assessed as cell viability after 48 hrs by MTS assay; type: cell-based; conditions: Huh-7, 48 h
Candida tropicalis [31] = assay: Antifungal activity against Candida tropicalis 156 after 48 hrs by broth microdilution method; type: functional; conditions: Candida tropicalis, 156, 48 h
Mycobacterium avium [32] = assay: Antimycobacterial activity against Mycobacterium avium CNCTC My 330/88 after 14 days by micromethod; type: functional; conditions: CNCTC My 330/88, 336 h
Pseudomonas aeruginosa [33] = assay: Antibacterial activity against Pseudomonas aeruginosa ATCC 9027 after 48 hrs by broth microdilution method; type: functional; conditions: ATCC 9027, 48 h
[34] = system: Mycobacterium tuberculosis; assay: Antimycobacterial activity against Mycobacterium tuberculosis CNCTC My 331/88 after 21 days by micromethod; type: functional; conditions: CNCTC My 331/88, 504 h
Staphylococcus aureus [35] = assay: Antibacterial activity against Staphylococcus aureus ATCC 6538 after 24 hrs by broth microdilution method; type: functional; conditions: ATCC 6538, 24 h
Mycobacterium avium [36] = assay: Antimycobacterial activity against Mycobacterium avium CNCTC My 330/88 after 21 days by micromethod; type: functional; conditions: CNCTC My 330/88, 504 h
Klebsiella pneumoniae [37] = assay: Antibacterial activity against Klebsiella pneumoniae HK11750/08 after 48 hrs by broth microdilution method; type: functional; conditions: HK11750/08, 48 h
[38] = system: Staphylococcus epidermidis; assay: Antibacterial activity against Staphylococcus epidermidis HK6996/08 after 48 hrs by broth microdilution method; type: functional; conditions: HK6996/08, 48 h
[39] = system: Staphylococcus epidermidis; assay: Antibacterial activity against Staphylococcus epidermidis HK6996/08 after 24 hrs by broth microdilution method; type: functional; conditions: HK6996/08, 24 h
Mycobacterium kansasii [40] = assay: Antimycobacterial activity against Mycobacterium kansasii 6509/96 clinical isolate after 14 days by micromethod; type: functional; conditions: 6509/96, 336 h
Pichia kudriavzevii [41] = assay: Antifungal activity against Candida krusei E28 after 48 hrs by broth microdilution method; type: functional; conditions: E28, 48 h
[42] = Cytotoxicity against human HepG2 cells assessed as cell viability at 30 uM after 48 hrs by MTS assay relative to control; type: cell-based; conditions: read-out: Activity
[43] = system: Mycobacterium tuberculosis; assay: Antimycobacterial activity against Mycobacterium tuberculosis CNCTC My 331/88 after 14 days by micromethod; type: functional; conditions: CNCTC My 331/88, 336 h
Aspergillus fumigatus [44] = assay: Antifungal activity against Aspergillus fumigatus 231 after 24 hrs by broth microdilution method; type: functional; conditions: Aspergillus fumigatus, 231, 24 h
Staphylococcus aureus [45] = assay: Antibacterial activity against Staphylococcus aureus ATCC 6538 after 48 hrs by broth microdilution method; type: functional; conditions: ATCC 6538, 48 h
[46] = Selectivity index, ratio of IC50 for human HepG2 cells to MIC for Mycobacterium tuberculosis; type: toxicity; conditions: read-out: Selectivity Index
[47] = Cytotoxicity against human A431 cells assessed as cell viability at 30 uM after 48 hrs by MTS assay relative to control; type: cell-based, A-431; conditions: read-out: Activity

`O=[N+]([O-])c1cc(-n2nnnc2SCc2ccc(Cl)cc2)cc([N+](=O)[O-])c1` gave an MIC (Klebsiella pneumoniae [1]) of over 500 µM, an MIC (Pichia kudriavzevii [2]) of over 500 µM and an MIC (Lichtheimia corymbifera [3]) of over 500 µM. For the same compound, the MIC [4] was over 500 µM, the MIC (Lichtheimia corymbifera [5]) was over 500 µM and the IC50 (A-431) was over 30 µM. The viability at 48 h, 30 µM [6] was 115%, the MIC [7] was over 500 µM and the MIC (Enterococcus sp. [8]) was over 500 µM. The MIC (Staphylococcus aureus [9]) was 125 µM (≈ 49.1 µg/mL), the MIC (Escherichia coli [10]) was over 500 µM and the MIC (Escherichia coli [11]) was over 500 µM. It also gave an MIC (Mycobacterium kansasii [12]) of 1 µM (≈ 0.393 µg/mL), an MIC (Enterococcus sp. [13]) of over 500 µM and an MIC (Trichosporon asahii [14]) of over 500 µM. For the same compound, the MIC (Candida albicans [15]) was over 500 µM, the MIC (Mycobacterium kansasii [16]) was 1 µM (≈ 0.393 µg/mL) and the MIC (Klebsiella pneumoniae [17]) was over 500 µM. It also gave an MIC (Candida tropicalis [18]) of over 500 µM, an MIC (Mycobacterium kansasii [19]) of 0.5 µM (≈ 0.196 µg/mL) and an IC50 (HepG2) of over 30 µM. It also gave a viability at 48 h, 30 µM [20] of 85%, an MIC (Nakaseomyces glabratus [21]) of over 500 µM and an MIC (Trichosporon asahii [22]) of over 500 µM. The MIC (Klebsiella pneumoniae [23]) was over 500 µM, the MIC (Candida albicans [24]) was over 500 µM and the MIC (Mycobacterium kansasii [25]) was 4 µM (≈ 1.57 µg/mL). For the same compound, the MIC (Pseudomonas aeruginosa [26]) was over 500 µM, the MIC (Staphylococcus aureus [27]) was 125 µM (≈ 49.1 µg/mL) and the IC50 (MDCK) was over 30 µM. The MIC (Aspergillus fumigatus [28]) was over 500 µM, the MIC (Mycobacterium kansasii [29]) was 2 µM (≈ 0.786 µg/mL) and the MIC (Nakaseomyces glabratus [30]) was over 500 µM. The IC50 (Huh-7) was over 30 µM, the MIC (Candida tropicalis [31]) was over 500 µM and the MIC (Mycobacterium avium [32]) was 8 µM (≈ 3.14 µg/mL). For the same compound, the MIC (Pseudomonas aeruginosa [33]) was over 500 µM, the MIC [34] was 0.5 µM (≈ 0.196 µg/mL) and the MIC (Staphylococcus aureus [35]) was 125 µM (≈ 49.1 µg/mL). The MIC (Mycobacterium avium [36]) was 16 µM (≈ 6.28 µg/mL), the MIC (Klebsiella pneumoniae [37]) was over 500 µM and the MIC [38] was 500 µM (≈ 196 µg/mL). The MIC [39] was 500 µM (≈ 196 µg/mL), the MIC (Mycobacterium kansasii [40]) was 1 µM (≈ 0.393 µg/mL) and the MIC (Pichia kudriavzevii [41]) was over 500 µM. For the same compound, the viability at 48 h, 30 µM [42] was 134%, the MIC [43] was 0.5 µM (≈ 0.196 µg/mL) and the MIC (Aspergillus fumigatus [44]) was over 500 µM. It also gave an MIC (Staphylococcus aureus [45]) of 125 µM (≈ 49.1 µg/mL), a selectivity ratio [46] of over 60 and a viability at 48 h, 30 µM [47] of 74%.
